From US20100081679A1, “DIAMINOPYRIMIDINES AS FUNGICIDES” (Bayer CropScience AG, priority 2007, published 2010)
Where a name gives a salt, the structure may show the parent alone. Marks after values point to notes of the source that are not given here.

Experiment: logP determination via retention times, calibrated with unbranched alkan-2-ones
Format: physicochemical
Conditions: HPLC on reversed-phase C 18, EEC Directive 79/831 Annex V.A8; method *: 40° C., 0.1% aqueous formic acid and acetonitrile, linear gradient 10% to 95% acetonitrile

Row | logP | SMILES
1 | 1.29* | O=C1COCCN1c1ccc(Nc2ncc(Br)c(NC3CC3)n2)cc1 [compound 500]
2 | 2.13* | CCC(=O)c1cc(Nc2ncc(Cl)c(NCC3CC3)n2)ccc1O [compound 541]
3 | 1.51* | CC(=O)Nc1cc(Nc2ncc(Br)c(NCC3CC3)n2)ccc1C [compound 468]
4 | 2.17* | O=S(=O)(Cc1ccc(Nc2ncc(Cl)c(NC3CC3)n2)cc1)N1CCCCC1 [compound 537]
5 | 1.31* | O=C1Cc2cc(Nc3ncc(Cl)c(NCC4CC4)n3)ccc2N1 [compound 516]
6 | 2.36* | O=C(Nc1cccc(Nc2ncc(Br)c(NCC3CC3)n2)c1)Oc1ccccc1 [compound 466]
7 | 2.29* | O=C(Nc1cccc(Nc2ncc(Br)c(NCC3CC3)n2)c1)c1ccccc1 [compound 492]

Same assay, conditions: HPLC on reversed-phase C 18, method **: 43° C.; 0.1% aqueous phosphoric acid and acetonitrile; linear gradient 10% to 95% acetonitrile

Row | logP | SMILES
8 | 2.22** | CN(c1nc(Nc2cccc(N3CCCC3=O)c2)ncc1Cl)C1CC1 [compound 769]

Same assay, conditions: HPLC on reversed-phase C18, method *: 40° C., 0.1% aqueous formic acid and acetonitrile, linear gradient 10% to 95% acetonitrile

Row | SMILES | logP
9 | OC(c1cccc(Nc2ncc(C(F)(F)F)c(NCC3CC3)n2)c1)C(F)(F)F (stereo not shown) [compound 667] | 2.82*
10 | O=S(=O)(c1cccc(Nc2ncc(Cl)c(NCC3CC3)n2)c1)N1CCCCC1 [compound 675] | 2.16*
11 | CC(=O)N(C)c1ccc(Nc2ncc(Cl)c(NCC3CC3)n2)cc1 [compound 671] | 1.58*
12 | COc1ccc(Nc2ncc(Cl)c(NCC3CC3)n2)cc1 [compound 669] | 1.73*
13 | CC(=O)Nc1cc(Nc2ncc(Cl)c(NCC3CC3)n2)ccc1C [compound 679] | 1.49*

More lines, now with the values ahead:

Row | logP | SMILES
14 | 3.72* | FC(F)(F)Sc1ccccc1Nc1ncc(Cl)c(NC2CC2)n1 [compound 944]
15 | 4.43* | Clc1cc(Cl)cc(Nc2ncc(Br)c(NC3CC3)n2)c1 [compound 749]
16 | 1.59* | CC[S+]([O-])c1cccc(Nc2ncc(Br)c(NC3CC3)n2)c1 (racemic) [compound 958]
17 | 1.53* | COc1ccc(Nc2ncc(Br)c(NC3CC3)n2)cc1OC [compound 742]
18 | 3.03* | CSc1ccc(Nc2ncc(Br)c(NC3CC3)n2)cc1Cl [compound 746]
19 | 3.07* | FC(F)(F)Oc1ccccc1Nc1ncc(Cl)c(NC2CC2)n1 [compound 883]
20 | 3.38* | CC(C)Sc1cccc(Nc2ncc(Br)c(NC3CC3)n2)c1 [compound 707]
21 | 3.14* | Clc1cnc(Nc2ccccc2Oc2ccccc2)nc1NC1CC1 [compound 901]
22 | 1.73* | C=CCNC(=O)c1ccc(Nc2ncc(Br)c(NC3CC3)n2)cc1 [compound 755]
23 | 2.13* | CCOc1ccccc1Nc1ncc(Cl)c(NC2CC2)n1 [compound 876]
24 | 3.59* | COc1cc(Nc2ncc(C(F)(F)F)c(NC3CC3)n2)ccc1Cl [compound 700]
25 | 0.79* | CN(C)Cc1cccc(Nc2ncc(Cl)c(NC3CC3)n2)c1 [compound 718]

Same assay, conditions: HPLC on reversed-phase C18, method *: 40° C.; mobile phase 0.1% aqueous formic acid and acetonitrile; linear gradient 10% to 95% acetonitrile

Row | logP | SMILES
26 | 2.11* | FC(F)Oc1ccc(Nc2ncc(Cl)c(NC3CC3)n2)cc1 [compound 288]
27 | 2.95* | O=C1CCCN1c1cccc(Nc2ncc(Cl)c(NC3(c4ccccc4Cl)CC3)n2)c1 [compound 323]
28 | 2.13* | Cc1cc(C)cc(Nc2ncc(Cl)c(NC3CC3)n2)c1 [compound 274]
29 | 2.39* | CC(C)(C)C(=O)Cc1ccc(Nc2ncc(Br)c(NC3CC3)n2)cc1 [compound 355]
30 | 1.9* | COc1cccc(Nc2ncc(Br)c(NC3CC3)n2)c1 [compound 343]
31 | 2.54* | Clc1ccc(Nc2ncc(Cl)c(NC3CC3)n2)cc1 [compound 285]
32 | 1.47* | COc1ccc(Nc2ncc(Cl)c(NC3CC3)n2)cc1OC [compound 279]

Same assay, conditions: HPLC on reversed-phase C18 column (EEC Directive 79/831 Annex V.A8); method *: 40° C.; 0.1% aqueous formic acid and acetonitrile; linear gradient 10% to 95% acetonitrile

Row | logP | SMILES
33 | 2.24* | O=S(=O)(Cc1cccc(Nc2ncc(Cl)c(NC3CC3)n2)c1)N1CCCCC1 [compound 262]
34 | 1.9* | CC(=O)Nc1cccc(Nc2ncc(C(F)(F)F)c(NCC3CC3)n2)c1 [compound 204]
35 | 1.8* | COCc1cccc(Nc2ncc(Br)c(NC3CC3)n2)c1 [compound 269]
36 | 1.76* | CS(=O)(=O)c1cccc(Nc2ncc(Br)c(NC3CC3)n2)c1 [compound 254]
37 | 1.9* | COc1cc(Nc2ncc(Cl)c(NC3CC3)n2)ccc1F [compound 259]
38 | 2.13* | CC(=O)N(C)c1ccc(Nc2ncc(C(F)(F)F)c(NCC3CC3)n2)cc1 [compound 202]
39 | 1.63* | CS(=O)(=O)c1cccc(Nc2ncc(Cl)c(NC3CC3)n2)c1 [compound 252]

Same assay, conditions: HPLC reversed-phase C 18, EEC Directive 79/831 Annex V.A8; method **: 43° C., 0.1% aqueous phosphoric acid and acetonitrile, linear gradient 10% to 95% acetonitrile

Row | logP | SMILES
40 | 2.18** | O=C1OCCN1c1cccc(Nc2ncc(C(F)(F)F)c(NC3CC3)n2)c1 [compound 834]

Same assay, conditions: HPLC reversed-phase C 18, EEC Directive 79/831 Annex V.A8; method *: 40° C., 0.1% aqueous formic acid and acetonitrile, linear gradient 10% to 95% acetonitrile

Row | logP | SMILES
41 | 2.63* | O=[N+]([O-])c1cccc(Nc2ncc(Cl)c(NC3CC3)n2)c1 [compound 788]
42 | 1.87* | N#CCc1cc(Nc2ncc(Cl)c(NCC3CC3)n2)ccc1F [compound 816]
43 | 2.25* | CCCS(=O)(=O)c1cccc(Nc2ncc(Cl)c(NC3CC3)n2)c1 [compound 852]
44 | 2.18*; | O=C1OCCN1c1cccc(Nc2ncc(C(F)(F)F)c(NC3CC3)n2)c1 [compound 834]
45 | 1.32* | O=C(O)c1cccc(Nc2ncc(Cl)c(NC3CC3)n2)c1 [compound 785]
46 | 1.31* | O=C1COCCN1c1cccc(Nc2ncc(Cl)c(NCC3CC3)n2)c1 [compound 786]
47 | 1.99* | Oc1c(Cl)cc(Nc2ncc(Cl)c(NC3CC3)n2)cc1Cl [compound 845]
48 | 2.44* | CSc1cccc(Nc2ncc(I)c(NC3CC3)n2)c1 [compound 858]

Same assay, conditions: method **: HPLC reversed-phase C 18, 43° C., 0.1% aqueous phosphoric acid and acetonitrile, linear gradient 10% to 95% acetonitrile

Row | logP | SMILES
49 | 2.7** | Clc1cccc(Nc2ncc(Cl)c(NCC3CC3)n2)c1 [compound 9]
50 | 1.37** | CNS(=O)(=O)Cc1ccc(Nc2ncc(Cl)c(NC3CC3)n2)cc1 [Example 48]
51 | 2.62** | FC(F)(F)c1cnc(Nc2ccccc2)nc1NC1CC1 [Example 93]
52 | 2.25** | COC(=O)c1ccc(Nc2ncc(Cl)c(NC3CC3)n2)cc1.Cl [compound 36]
53 | 2.75** | CCCCNS(=O)(=O)c1ccc(Nc2ncc(Cl)c(NCC3CC3)n2)cc1 [compound 23]
54 | 2.23** | CCOC1(Nc2nc(Nc3ccccc3)ncc2Cl)CC1 [compound 39]

Same assay, conditions: method **: HPLC reversed-phase C 18, temperature 43° C.; mobile phase 0.1% aqueous phosphoric acid and acetonitrile; linear gradient 10% to 95% acetonitrile

Row | logP | SMILES
55 | 1.83** | O=C1CCCN1c1cc(F)cc(Nc2ncc(Cl)c(NC3CC3)n2)c1 [compound 625]

Same assay, conditions: method *: HPLC reversed-phase C18, 40° C., 0.1% aqueous formic acid and acetonitrile, linear gradient 10% to 95% acetonitrile

Row | logP | SMILES
56 | 1.9* | C=CCNC(=O)c1ccc(Nc2ncc(Br)c(NCC3CC3)n2)cc1 [compound 425]
57 | 2.84* | FC(F)(F)Oc1ccc(Nc2ncc(Cl)c(NC3CC3)n2)cc1 [compound 375]
58 | 1.85* | CC(C)C(=O)Nc1cccc(Nc2ncc(Br)c(NCC3CC3)n2)c1 [compound 460]
59 | 2.7* | Clc1cccc(Nc2ncc(Cl)c(NC3CC3)n2)c1 [compound 1]
60 | 2.2* | O=C(NCc1ccc(Nc2ncc(Cl)c(NC3CC3)n2)cc1)OCc1ccccc1 [Example 95]

Same assay, conditions: method *: HPLC reversed-phase C 18, temperature 40° C.; mobile phase 0.1% aqueous formic acid and acetonitrile; linear gradient 10% to 95% acetonitrile

Row | logP | SMILES
61 | 1.14* | Cc1cnc(Nc2cccc(N3CCCC3=O)c2)nc1NC1CC1 [compound 567]
62 | 1.92* | CS(=O)(=O)c1ccc(Nc2ncc(C#N)c(NC3CC3)n2)cc1 [compound 605]
63 | 1.32* | CC(=O)Nc1ccc(Nc2ncc(F)c(NC3CC3)n2)cc1Cl [compound 580]
64 | 1.17* | COc1cc(Nc2ncc(F)c(NC3CC3)n2)ccc1NC(C)=O [compound 572]
65 | 4.08* | FC(F)(F)Oc1cccc(Nc2ncc(C(F)(F)F)c(NC3CC3)n2)c1 [compound 643]
66 | 3.74* | COC(c1cccc(Nc2ncc(C(F)(F)F)c(NC3CC3)n2)c1)C(F)(F)F (stereo not shown) [compound 624]
67 | 1.6* | O=C1CCCN1c1cccc(Nc2ncc(I)c(NC3CC3)n2)c1 [compound 637]
68 | 1.53* | CC(=O)c1ccc(Nc2ncc(F)c(NC3CC3)n2)cc1 [compound 590]
69 | 2.13* | CSc1ccc(Nc2ncc(F)c(NC3CC3)n2)cc1Cl [compound 579]

Same assay, conditions: method *: HPLC, reversed-phase C 18, 40° C., mobile phase 0.1% aqueous formic acid and acetonitrile, linear gradient from 10% to 95% acetonitrile

Row | logP | SMILES
70 | 3.18* | Clc1cnc(Nc2cccc(C3CCCC3)c2)nc1NC1CC1 [compound 1066]
71 | 2.55* | CCSCc1cccc(Nc2ncc(Cl)c(NC3CC3)n2)c1 [compound 986]
72 | 1.84* | CCN(CC)C(=O)c1ccc(Nc2ncc(Cl)c(NC3CC3)n2)cc1 [compound 984]
73 | 1.55* | COCc1cc(Nc2ncc(Cl)c(NC3CC3)n2)ccc1OC [compound 1050]
74 | 2.09* | Cc1cccc(Nc2ncc(Cl)c(NCC3CC3)n2)c1 [compound 1051]
75 | 1.86* | CC1CCCN1C(=O)c1cccc(Nc2ncc(Cl)c(NC3CC3)n2)c1 (stereo not shown) [compound 1062]
76 | 2.71* | CCN(CC)C(=O)c1cccc(Nc2ncc(C(F)(F)F)c(NC3CC3)n2)c1 [compound 1049]
77 | 1.43* | O=C(c1cccc(Nc2ncc(Cl)c(NC3CC3)n2)c1)N1CCC1 [compound 1063]

Same assay, conditions: pH 2.3; read-out: logP (pH2.3)

Row | chromatographic logP | SMILES
78 | 2.11 | CC(C)Oc1ccc(Nc2ncc(Cl)c(NCC3CC3)n2)cc1 [Example 55, 5-Chloro-N^4-(cyclopropylmethyl)-N^2-(4-isopropoxyphenyl)pyrimidine-2,4-diamine hydrochloride]

Same assay, conditions: reversed-phase C18 HPLC column; method **: HPLC reversed-phase C 18, 43° C., 0.1% aqueous phosphoric acid and acetonitrile, linear gradient 10% to 95% acetonitrile; read-out: logP

Row | chromatographic logP | SMILES
79 | 2.11 | CC(C)Oc1ccc(Nc2ncc(Cl)c(NCC3CC3)n2)cc1 [Example 55, 5-Chloro-N^4-(cyclopropylmethyl)-N^2-(4-isopropoxyphenyl)pyrimidine-2,4-diamine hydrochloride]
